For series [1], the target named is T1, Recombinant human C17,20 lyase (hLyase) (Homo sapiens, UniProt P05093).
T1 construct: made in house; host or cells: Sf9 insect cells (baculovirus); hLyase-enriched microsomes
T1 sequence (P05093 1-508): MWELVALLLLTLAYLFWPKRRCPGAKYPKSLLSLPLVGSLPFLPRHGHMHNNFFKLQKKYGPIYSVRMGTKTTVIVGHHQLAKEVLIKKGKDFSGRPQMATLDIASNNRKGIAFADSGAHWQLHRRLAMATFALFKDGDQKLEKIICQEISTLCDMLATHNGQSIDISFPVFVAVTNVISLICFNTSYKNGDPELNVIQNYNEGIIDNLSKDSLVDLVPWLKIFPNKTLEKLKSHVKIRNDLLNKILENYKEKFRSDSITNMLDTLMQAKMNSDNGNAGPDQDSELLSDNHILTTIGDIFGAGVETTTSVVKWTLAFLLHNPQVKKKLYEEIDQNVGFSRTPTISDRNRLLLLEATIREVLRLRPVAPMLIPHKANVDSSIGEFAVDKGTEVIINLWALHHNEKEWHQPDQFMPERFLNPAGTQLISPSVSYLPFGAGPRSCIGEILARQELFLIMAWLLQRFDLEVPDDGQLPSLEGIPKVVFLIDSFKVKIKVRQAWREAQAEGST
Put plainly: Human C17,20 lyase biochemical assay (DHEA formation, RIA/SPA). As to the method:
(§1) Recombinant human C17,20 lyase (hLyase) was expressed in (Sf9) cells, and hLyase enriched microsomes were prepared from cultures as described in the following reference: Baculovirus Expression of Bovine P450 in Sf9 Cells and Comparison with Expression in Yeast, Mammalian Cells, and E. Coli. Barnes H. J.; Jenkins, C. M.; Waterman, M. R., Archives of Biochemistry and Biophysics (1994) 315(2)489-494. Recombinant murine C17,20 lyase (mLyase) was prepared in a similar manner. hLyase and mLyase preparations were titrated using assay conditions to determine protein concentrations to be used for assays. Both mLyase and hLyase assays were run in an identical manner except that cytochrome b5 was omitted in the murine assays.
Test compounds were diluted […], serially in six steps, with 100% DMSO starting from 800 μM going to 51.2 nM reserving the first 2 columns for the generation of a standard curve. Each of these compound solutions in 100% DMSO was further diluted twenty fold in H2O to obtain compound concentrations ranging from 40 μM to 2.56 nM in 5% DMSO. […]
(§2) Enzymatic reactions were allowed to run for 2 h at rt with gentle agitation. […] The concentration of DHEA generated by hLyase was determined by radioimmunoassay (RIA) as described below.
(§3) 0.08 μCi ^3H-DHEA (1.6 μCi/mL) (NEN (NET814)) in scintillation proximity assay (SPA) buffer (100 mM Tris-HCl, pH 7.5, 50 mM NaCl, 0.5% BSA (Sigma A9647), 0.2% Tween 20) was added to each well. […] Mixtures were allowed to equilibrate with gentle agitation for 1 h followed by an overnight equilibration with no agitation. ^3H-DHEA bound to the SPA beads was determined by scintillation counting.
The concentration of DHEA generated in each reaction was calculated from raw data (CPM) and the standard curve. The lyase inhibitory activity of each compound was determined as the concentration of DHEA generated in the presence of test compounds, expressed as a percent inhibition compared to the DHEA concentration generated in the absence of test compounds (1−(nM DHEA formed in the presence of test compound/nM DHEA formed in the absence of test compounds)×100).

In series [2] the target is T2, Recombinant murine C17,20 lyase (mLyase) (Mus musculus, UniProt P27786).
T2 construct: made in house; host or cells: Sf9 insect cells (baculovirus), by analogy ('in a similar manner'); enriched microsomes
T2 sequence (P27786 1-507): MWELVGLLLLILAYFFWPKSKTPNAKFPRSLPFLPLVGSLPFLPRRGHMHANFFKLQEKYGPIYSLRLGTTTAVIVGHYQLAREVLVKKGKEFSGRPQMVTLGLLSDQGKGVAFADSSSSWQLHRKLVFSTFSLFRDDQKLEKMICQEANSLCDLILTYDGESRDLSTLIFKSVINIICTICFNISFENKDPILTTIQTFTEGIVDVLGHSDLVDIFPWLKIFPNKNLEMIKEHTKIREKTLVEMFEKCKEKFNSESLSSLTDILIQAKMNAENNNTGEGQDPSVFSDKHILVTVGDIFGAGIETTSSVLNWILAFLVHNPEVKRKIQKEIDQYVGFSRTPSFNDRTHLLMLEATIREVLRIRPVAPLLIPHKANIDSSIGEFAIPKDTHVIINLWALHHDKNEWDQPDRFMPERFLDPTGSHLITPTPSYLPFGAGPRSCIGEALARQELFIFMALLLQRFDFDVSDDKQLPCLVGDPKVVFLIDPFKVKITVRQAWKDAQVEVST
Kind of series: Murine C17,20 lyase biochemical assay (DHEA formation, RIA/SPA, cytochrome b5 omitted). Conditions: Table V. The procedure:
as §1, with “Both mLyase and hLyase assays were run in an identical manner except that cytochrome b5 was omitted in the murine assays.” left out
as §2, §3
The concentration of DHEA generated in each reaction was calculated from raw data (CPM) and the standard curve. […]

The test system of another series is powdery mildew. Put plainly: Test against powdery mildew.
Where [3] appears, read: read-out: inhibitory IC50 against C17,20 human lyase.

In general, melting point refers to the temperature of the solid-liquid transition. Usually IC50 stands for the point on the concentration scale where inhibition reaches its midpoint.

Structures are written as SMILES. Like-named read-outs stand apart in the source and are kept apart here.

`Cl.Clc1ccc(-c2csc(-c3cnccc3Cl)n2)cc1` yielded a melting point of 176.5 to 183.5 °C.
Turning to `Cc1ccncc1-c1nc(Cc2ccc(Cl)cc2)cs1.Cl`, the melting point lay within 165.5 to 170 °C.
As for `Clc1ccc(-c2csc(-c3cccnc3)n2)c(Cl)c1` [2-(3-pyridyl)-4-(2,4-dichlorophenyl)thiazole, reference compound], the values for the IC50 in series [1] (setting [3]) and in series [2] were 406 nM and 1400 nM, respectively. Also, in the series with powdery mildew (*Statistically insignificant), the “% Inhibition against Powdery Mildew” value came out at 80%.
With `Cc1ccncc1-c1nc(-c2ccc(Cl)cc2Cl)cs1` [2-[4-methyl-3-pyridyl)-4-(2,4-dichlorophenyl)thiazole], the IC50 in series [1] (Table V, read-out: Human Lyase IC50) was 15.1 nM; in series [1] (setting [3]), 15 nM; in series [2], 39.7 nM. The “% Inhibition against Powdery Mildew” value in the series on powdery mildew (*Statistically insignificant; listed as 2-[4-methyl-3-pyridyl)-4-(2,4dichlorophenyl)thiazole) is “devoid of activity”; in the series on powdery mildew (*Statistically insignificant, listed as drawing 261), 10%*.
Compound `Cc1sc(-c2cccnc2)nc1Nc1ccccc1` [Example 6] showed a melting point of 110 °C.
